In one test the test system is COC1 cell. In words: Inhibition of COC1 cell growth measured by MTT method. In kind it is cell-based. Particulars: Homo sapiens, COC1 cells, 48 hours; for IC50: Calcusyn program. Here is the method:
(§1) Cell lines of COC1, SMMC-7721, MCF-7and HT-29 were purchased from Chinese storage center for typical culture. Cells were cultured in RPMI1640 with 10% FCS at 37°C and 5% of CO2. Cells at log phase were harvested for the experiment.
(§2) Cells growth inhibition was measured with MTT method. Cells suspension of 1.0-1.2×10^5/ml were prepare and transferred to 96 well plate, 180µl per well. After further incubation for 2 hours, 20µl of various reagents were added to each well. The cells were back to incubator for 48 hours, and followed with addition of MTT of 20µl (5mg/ml)to each will. Additional incubation 6 hours later, the plate was centrifuged at 1000 rpm for 5 minutes. After aspirating supernatant, 100µl DMSO were added to each well and the optical density were measured at 490nm. The cells inhibition (IR) is calculated as : IR(%)=[1-A(treated)/A(control)]×100% , where is A is optical density. The IR was analyzed using Calcusyn program to determine the IC50 of each drug

In another test the test system is Akt. Description: Inhibition of Akt activation (phosphorylation) in breast cancer cells, Western analysis. Format: cell-based, human. Particulars: MDA-MB-435 cells; for inhibition of Akt activation by suppressing its phosphorylation: 12 hours, 0, 0.5 µM, 4 µM, and 8 µM, Fig. 3; for levels of total non-phosphorylated Akt protein: Western analysis; for Akt phosphorylation: dose of 4 µM. Here is the method: Experimental Design: MDA-MB-435 human breast cancer cells were cultured in the DMEM medium with 5% FCS. When cells reached approximately 50-60% confluence, cells were treated with VB-1 and VB-2 for 12 hours at the following doses: 0, 0.5 µM, 4 µM, and 8 µM. Control and treated cells are harvested and total protein was isolated, normalized, and 45 µg of total protein was subjected to Western analysis. The expression of phosphorylated Akt was determined by using a specific anti-phosphorylated Akt antibody and normalized for total Akt protein expression.

Test [1] deals with human ovarian tumor cells (CoC1). Description: In vivo tumor treatment model: nude mice inoculated with CoC1 tumor cells, tumor volume. Also noted: species or system Balb/c-nu mice. As to conditions: for Suppression rate of tumor growth (%): vs. control (NS); for Volume (mm^3): x±s, n=4. The method, then: Experimental Design: Human ovarian tumor cells (CoC1) were purchased from Chinese storage center for typical culture. Cells were cultured in RPMI1640 with 10% FCS. Sub-culture for every 2-3 days. Cells at log phase were harvested for the experiment. Approximately 2x10^6 CoC1 cells were injected subcutaneously into the back of the Balb/c-nu female nude mice at the age of 6-7 weeks. When tumors reached to ≥ 1000 mm^3 (about 30 days), mice bearing similar size tumors were divided into 2 groups: control (NS) and VB-2 treated group. Each group has 4 mice.
VB-2 was dissolved into DMSO and further diluted with normal saline. […] Treatment groups received drugs every other day until the termination of the experiment. All mice were sacrificed at day 20 after the first treatment. Tumor size was determined by three-dimensional measurements (mm) using a caliper. Only measurable tumors were used to calculate the mean tumor volume for each clone at each time point. Each point represents the mean of tumors ± SE. Statistical comparisons for tumor size in treated mice relative to control mice indicate: ** p < 0.01.

For the next test, the system named is MCF-7 cell. In words: Inhibition of MCF-7 cell growth (MTT method). Format: cell-based. As to conditions: Homo sapiens, MCF7, MCF-7 cells, 48 hours; for IC50: Calcusyn program. Here is the method:
as §1, §2

For another test, the system named is HT-29 cell. Description: Inhibition of HT-29 cell growth (MTT method). In kind it is cell-based. Particulars: Homo sapiens, HT-29 cells, 48 hours. The method, then: as §1, §2
Test [2] relates to MDA-MB-435 human breast cancer cells. In words: Growth inhibition of MDA-MB-435 cells measured with MTT method (example titled induction of apoptosis). In kind it is cell-based. As to conditions: for cells growth (percentage of the control group): p value less than 0.005. Here is the method:
Experimental design: MDA-MB-435 human breast cancer cells were cultured in the DMEM medium with 5% FCS. Cells were treated with VB-1 at 2 µM, 4 µM and 10 µM for 3 days. Cells were collected from control and treated groups and measured with MTT method.
(Tetrazolium assays rely on reduction of a dye to a coloured formazan, in cell work by metabolically active cells.)

Another test deals with SMMC-7721 cell. Description: Inhibition of SMMC-7721 cell growth measured by MTT method. As to conditions: Homo sapiens, SMMC-7721 cells, 48 hours. Format: cell-based. The method, then: as §1, §2

Values after ≈ are worked out from the molar mass of the structure shown. Marks after values point to notes of the source that are not given here.

For orientation: inhibition means how much of the control response was suppressed. Low readings indicate a weak effect, high ones a strong effect. By IC50 is commonly meant the concentration that inhibits the measured activity by half. In the case of `COc1cc([C@H]2c3c(ccc(O)c3OC)C=C(C=O)[C@@H]2CO)ccc1O` [VB-2, 6-hydroxy-4-(4-hydroxy-3-methoxyphenyl)-3-hydroxymethyl-5-methoxy-3,4-dlhydro(3R, 4S)-2-naphthaldehyde], in the test on COC1 cell, the inhibition at 0.5 µg/mL was determined as 39.9%, the inhibition at 5 µg/mL came out at 34.1% and the inhibition at 50 µg/mL amounted to 39.5%. Besides, the “inhibition of Akt activation by suppressing its phosphorylation” value with Akt is listed as “dose-dependent inhibition”. For the same molecule, in the test with Akt (12 hours), the “levels of total non-phosphorylated Akt protein” value is listed as “no effects” and the Akt phosphorylation entry is “significantly block”. For the same molecule, in test [1] (day 5, dosage 5 mg/kg, i.p. every other day), the “Suppression rate of tumor growth (%)” value is reported as 7.8%. For the same molecule, in test [1] (day 10, dosage 5 mg/kg, i.p. every other day), the “Suppression rate of tumor growth (%)” value is 66.5%. For the same molecule, the “Suppression rate of tumor growth (%)” value in test [1] (day 15, dosage 5 mg/kg, i.p. every other day) is reported as 64.5%. Besides, the “Suppression rate of tumor growth (%)” value in test [1] (day 20, dosage 5 mg/kg, i.p. every other day) was determined as 55.7%. In addition, in test [1] (initial tumor volume before treatment, dosage 5 mg/kg), the “Volume (mm^3)” value came out at 1543±1466 mm^3. Also, the “Volume (mm^3)” value in test [1] (tumor volume at day 5, dosage 5 mg/kg, i.p. every other day) is recorded as 2542±1718 mm^3. The “Volume (mm^3)” value in test [1] (tumor volume at day 10, dosage 5 mg/kg, i.p. every other day) is listed as 2131±1207* mm^3. For the same molecule, in test [1] (tumor volume at day 15, dosage 5 mg/kg, i.p. every other day), the “Volume (mm^3)” value is listed as 3600±1755* mm^3. Moreover, the “Volume (mm^3)” value in test [1] (tumor volume at day 20, dosage 5 mg/kg, i.p. every other day) was 4495±2087** mm^3. In the test on MCF-7 cell, the inhibition at 0.1 µg/mL turned out to be 10.6%, testing at 0.3 µg/mL gave an inhibition of 15.8%, 1 µg/mL produced 17.6% inhibition and testing at 3 µg/mL gave an inhibition of 26.4%. In the test on MCF-7 cell, the inhibition at 10 µg/mL stood at 28.7% and the IC50 is 226 µg/mL (≈ 635 µM).

For `COc1cc([C@H]2c3cc(OC)c(OC)cc3C=C(C=O)[C@@H]2CO)ccc1O` [VB-7, 6,7-dimethoxy-4-(4-hydroxy-3-methoxyphenyl)-3-hydroxymethyl-3,4-dihydro (3R,4S) -2-naphthaldehyde], in the test with COC1 cell, the inhibition at 0.5 µg/mL came to 14.3%, the inhibition at 5 µg/mL worked out at 27.6%, the inhibition at 50 µg/mL came out at 50% and the concentration for half-maximal inhibition (IC50) is 53.2 µg/mL (≈ 144 µM).

For `COc1ccc(C2c3cc(OC)c(OC)cc3C=C(C=O)C2CO)cc1OC` (centres unmarked) [VB-6, 6-methoxy-4-(4-methoxy-3-methoxyphenyl)-3-hydroxymethyl-7-methoxy-3,4dihydro-2-naphthaldehyde], in the test with COC1 cell, 0.5 µg/mL produced 37% inhibition, the inhibition at 5 µg/mL is 45.6%, the inhibition at 50 µg/mL amounted to 57.1% and the IC50 was 11.1 µg/mL (≈ 28.8 µM). In the test on MCF-7 cell, this molecule showed an inhibition at 0.1 µg/mL of 10.9%, an inhibition at 0.3 µg/mL of 19.9%, an inhibition at 1 µg/mL of 22.8% and an inhibition at 3 µg/mL of 41.2%. For the same molecule, in the test on MCF-7 cell, testing at 10 µg/mL gave an inhibition of 46.4% and the half-inhibitory concentration (IC50) is 11.2 µg/mL (≈ 29 µM).

In the test on MCF-7 cell, `COc1cc([C@H]2c3cc(O)c(OC)cc3C=C(C=O)[C@@H]2CO[C@@H]2O[C@H](CO)[C@@H](O)[C@H](O)[C@H]2O)ccc1O` [VB-3, 6-hydroxy-4-(4-hydroxy-3-methoxyphenyl)-3-glucosyloxymethyl-7-methoxy-3,4-dihydro-(3R, 4S)-2-naphthaldehyde] displayed an inhibition at 0.1 µg/mL of 10.6%, an inhibition at 0.3 µg/mL of 11.3%, an inhibition at 1 µg/mL of 14% and an inhibition at 3 µg/mL of 18.5%. Further, in the test on MCF-7 cell, the inhibition at 10 µg/mL was 13.8% and the IC50 is 9260 µg/mL (≈ 17900 µM).

With `COc1cc2c(cc1O)[C@H](c1ccc(O[C@@H]3O[C@H](C(=O)O)[C@@H](O)[C@H](O)[C@H]3O)c(OC)c1)[C@@H](CO)C(C=O)=C2` [VB-5, 6-hydroxy-3-hydroxymethyl-4-(3-methoxyphenyl)-7-methoxy-3,4-dihydro-2-naphthaldehyde-4'-O-β-D-glucopyranosiduronic acid], in the test with COC1 cell, the inhibition at 0.5 µg/mL was 14.3%, the inhibition at 5 µg/mL was found to be 28.7%, at 50 µg/mL the inhibition was 35.2% and the IC50 is 371 µg/mL (≈ 697 µM). Moreover, in the test on MCF-7 cell, the inhibition at 0.1 µg/mL turned out to be 13.6%, the inhibition at 0.3 µg/mL amounted to 22%, testing at 1 µg/mL gave an inhibition of 23.2% and testing at 3 µg/mL gave an inhibition of 13.6%. For the same molecule, in the test with MCF-7 cell, the inhibition at 10 µg/mL was 30.4% and the IC50 was 471 µg/mL (≈ 885 µM).

With `COc1cc([C@H]2c3cc(O)c(OC)cc3C=C(CO)[C@@H]2CO)ccc1O` [VB-4, 6-hydroxy-7-methoxy-4-(4-hydroxy-3-methoxyphenyl)-2,3-dihydroxymethyl-3,4-dihydro(3R, 4S)-2-hydroynaphthalene], in the test with COC1 cell, testing at 0.5 µg/mL gave an inhibition of 38.8%, the inhibition at 5 µg/mL is 40.2% and the inhibition at 50 µg/mL turned out to be 40.6%. In the test with MCF-7 cell, this molecule gave an inhibition at 0.1 µg/mL of 19.7%, an inhibition at 0.3 µg/mL of 15.6%, an inhibition at 1 µg/mL of 12.3% and an inhibition at 3 µg/mL of 13.2%. The molecule also returned an inhibition at 10 µg/mL with MCF-7 cell of 24%.

For the molecule `COc1cc([C@H]2c3cc(O)c(OC)cc3C=C(C=O)[C@@H]2CO)ccc1O` [VB-1, 6-hydroxy-4-(4-hydroxy-3-methoxyphenyl)-3-hydroxymethyl-7-methoxy-3,4-dihydro-(3R, 4S)-2-naphthaldehyde], in the test with COC1 cell (0.4 µg/ml), at 0.4 µg/mL the inhibition was 27.1%. Further, in the test with COC1 cell, testing at 0.5 µg/mL gave an inhibition of 42.7% and the IC50 was 0.63 µg/mL (≈ 1.77 µM). The inhibition at 0.6 µg/mL with COC1 cell (0.6 µg/ml) is 48.1%. In addition, the inhibition at 0.8 µg/mL in the test with COC1 cell (0.8 µg/ml) was 65.9%. The inhibition at 1 µg/mL with COC1 cell (1.0 µg/ml) is 66.9%. For the same molecule, in the test with HT-29 cell (1.00 µg/ml), at 1 µg/mL the inhibition was 22.1%. This molecule also returned an inhibition at 10 µg/mL with HT-29 cell (10.00 µg/ml) of 32.3%. Further, the cell inhibition entry in test [2] (2 µM, 4 µM and 10 µM for 3 days, Fig 4) is given as “dose dependent cell inhibition”. Also, the “cells growth (percentage of the control group)” value in test [2] (4 µM, 3 days) is recorded as “significantly less than the control group”. Further, in test [2] (8 µM, 3 days), the “cells growth (percentage of the control group)” value is listed as “significantly less than the control group”. The inhibition at 10 µM in test [2] (Homo sapiens, 72 h, 10 µM, 3 days) is around 50%. Besides, the “inhibition of Akt activation by suppressing its phosphorylation” value with Akt is given as “dose-dependent inhibition”. Also, in the test on Akt (12 hours), the “levels of total non-phosphorylated Akt protein” value is reported as “no effects” and the Akt phosphorylation entry was “significantly block”. Further, the Akt activation entry in the test with Akt (12 hours, dose of 8 µM) is “completely blocks”. The inhibition at 1 µg/mL in the test with SMMC-7721 cell (1.00 µg/ml) is 20.1%. This molecule also returned an inhibition at 10 µg/mL with SMMC-7721 cell (10.00 µg/ml) of 22.3%. Also, in the test with MCF-7 cell, at 0.1 µg/mL the inhibition was 6.4%, the inhibition at 0.3 µg/mL stood at 9.1%, testing at 1 µg/mL gave an inhibition of 12.7% and 3 µg/mL produced 13.8% inhibition. In the test on MCF-7 cell, the inhibition at 10 µg/mL came out at 41.1% and the concentration for half-maximal inhibition (IC50) is 58 µg/mL (≈ 163 µM).

The values are drawn from EP1972611A1, “ARYL DIHYDRO-NAPHTHALENE COMPOUNDS, THEIR PREPARATION AND THEIR USE AS AKT INHIBITOR FOR THE PREVENTION AND TREATMENT OF CANCER” (Central South University, priority 2005, dated 2007).
